Data reported in ChEMBL document CHEMBL1121801, “Salicylamide derivatives related to medroxalol with alpha- and beta-adrenergic antagonist and antihypertension activity” (J Med Chem, 1981).

Experiments:
[1] = test system: Rattus norvegicus; assay: Antihypertensive activity in spontaneously hypertensive rats(SHR) at 50 mg/kg peroral dose after 4 h, expressed as decrease in systolic blood pressure; assay type: functional, Artery; settings: route oral
[2] = molecular target: T1, Adrenergic receptor alpha-1 (Homo sapiens, UniProt P35348+P25100+P35368); assay: Compound was tested in vitro for Alpha adrenergic receptor blocking activity in the isolated rabbit aortic strip preparation; - log KB; parameters: species or system Oryctolagus cuniculus; settings: target entry is the homologue from another species
T1 sequence (P35348 whole entry): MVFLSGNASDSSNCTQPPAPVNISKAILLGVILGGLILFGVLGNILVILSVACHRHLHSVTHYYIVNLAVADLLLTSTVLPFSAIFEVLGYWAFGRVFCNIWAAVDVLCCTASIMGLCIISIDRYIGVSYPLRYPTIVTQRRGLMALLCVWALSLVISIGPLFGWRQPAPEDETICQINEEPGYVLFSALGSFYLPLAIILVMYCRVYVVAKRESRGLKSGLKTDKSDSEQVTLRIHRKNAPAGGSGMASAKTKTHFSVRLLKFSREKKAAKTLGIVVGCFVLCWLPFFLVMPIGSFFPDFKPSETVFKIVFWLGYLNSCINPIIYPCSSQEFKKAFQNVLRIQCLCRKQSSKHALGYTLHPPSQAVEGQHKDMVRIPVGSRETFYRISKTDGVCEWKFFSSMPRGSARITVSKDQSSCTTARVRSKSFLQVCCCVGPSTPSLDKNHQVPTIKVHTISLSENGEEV
T1 sequence (P25100 whole entry): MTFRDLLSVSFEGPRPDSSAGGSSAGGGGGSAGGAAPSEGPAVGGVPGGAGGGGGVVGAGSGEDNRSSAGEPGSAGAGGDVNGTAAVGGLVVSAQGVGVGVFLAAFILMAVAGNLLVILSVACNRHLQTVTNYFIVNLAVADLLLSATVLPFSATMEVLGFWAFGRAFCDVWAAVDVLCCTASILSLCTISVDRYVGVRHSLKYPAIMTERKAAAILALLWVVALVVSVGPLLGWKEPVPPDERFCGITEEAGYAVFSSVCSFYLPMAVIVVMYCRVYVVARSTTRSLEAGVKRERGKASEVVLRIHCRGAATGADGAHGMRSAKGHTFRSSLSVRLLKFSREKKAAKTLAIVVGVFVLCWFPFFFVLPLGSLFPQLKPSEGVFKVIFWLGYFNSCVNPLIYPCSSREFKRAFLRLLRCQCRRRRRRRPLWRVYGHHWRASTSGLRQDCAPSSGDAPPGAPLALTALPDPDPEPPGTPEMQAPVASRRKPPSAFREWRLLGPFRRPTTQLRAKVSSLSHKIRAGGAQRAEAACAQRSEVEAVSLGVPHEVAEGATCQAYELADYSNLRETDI
T1 sequence (P35368 whole entry): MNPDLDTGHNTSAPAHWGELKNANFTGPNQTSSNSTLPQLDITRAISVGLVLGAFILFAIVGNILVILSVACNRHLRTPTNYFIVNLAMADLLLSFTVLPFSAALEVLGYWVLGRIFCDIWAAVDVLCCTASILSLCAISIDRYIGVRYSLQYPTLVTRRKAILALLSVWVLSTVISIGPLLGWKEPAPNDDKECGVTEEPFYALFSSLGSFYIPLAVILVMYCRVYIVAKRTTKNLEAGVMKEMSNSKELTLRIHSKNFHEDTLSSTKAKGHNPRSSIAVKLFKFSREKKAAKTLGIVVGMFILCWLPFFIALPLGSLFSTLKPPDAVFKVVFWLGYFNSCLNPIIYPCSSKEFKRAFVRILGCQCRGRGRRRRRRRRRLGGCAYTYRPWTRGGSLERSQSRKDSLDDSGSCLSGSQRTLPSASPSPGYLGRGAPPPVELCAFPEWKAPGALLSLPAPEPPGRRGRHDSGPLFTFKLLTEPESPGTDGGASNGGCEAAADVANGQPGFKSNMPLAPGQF

[3] = molecular target: Beta-2 adrenergic receptor (Canis lupus familiaris) (UniProt P54833);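 also: Beta-2 blockade of isoproterenol-induced vasodepression in anesthetized dogs, given intravenously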
Description: In vivo sympatholytic activity (isoproterenol-induced vasodepression) at beta 2-adrenergic receptor in anesthetized dog, iv

[4] = test system: Rattus norvegicus; assay: Antihypertensive activity in spontaneously hypertensive rats(SHR) at 50 mg/kg peroral dose after 1 h, expressed as decrease in systolic blood pressure; assay type: functional, Artery; settings: route oral
[5] = organism: Oryctolagus cuniculus; assay: (§1) Ratio of pA2 for beta-adrenergic receptor to that of alpha-adrenergic receptor
[6] = molecular target: Beta-1 adrenergic receptor (Homo sapiens) (UniProt P08588); settings: Canis lupus familiaris;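 also: anesthetized dogs dosed intravenously, sympatholytic action measured as inhibition of the chronotropic response to isoproterenol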
Description: In vivo sympatholytic activity (isoproterenol-induced chronotropy) at beta 1-adrenergic receptor in anesthetized dog, iv

[7] = molecular target: T2, Adrenergic receptor beta (Homo sapiens, UniProt P08588+P07550+P13945); assay: In vitro blocking activity against beta adrenergic receptor, isolated from guinea pig atria; assay type: protein assay
[8] = molecular target: Adrenergic receptor alpha (Homo sapiens) (UniProt P35348+P08913+P18825+P25100+P35368+P18089); settings: Canis lupus familiaris
Description: In vivo sympatholytic activity (phenylephrine-induced vasopressor response) at alpha-adrenergic receptor in anesthetized dog, iv

[9] = organism: Cavia porcellus; assay: spasmolytic activity in isolated guinea pig ileum preparation;- log KB; (Bacl2); assay type: functional, organism-based; settings: read-out: pA2 (converted)
[10] = molecular target: T2, Adrenergic receptor beta; assay: as §1; assay type: protein assay; settings: Cavia porcellus
[11] = molecular target: T1, Adrenergic receptor alpha-1; assay: In vitro blocking activity against alpha adrenergic receptor, isolated from rabbit aortic strip; assay type: protein assay, Oryctolagus cuniculus
[12] = test system: Rattus norvegicus; assay: Compound was tested for antihypertensive activity n spontaneously hypertensive rats(SHR),at 50 mg/kg (po) dose after 4 h; assay type: functional
[13] = test system: Rattus norvegicus; assay: Compound was tested for antihypertensive activity in spontaneously hypertensive rats(SHR)at 50 mg/kg (po) dose after 1 h; assay type: functional

Beta-1 adrenergic receptor (Homo sapiens), sequence (P08588 whole entry, looked up): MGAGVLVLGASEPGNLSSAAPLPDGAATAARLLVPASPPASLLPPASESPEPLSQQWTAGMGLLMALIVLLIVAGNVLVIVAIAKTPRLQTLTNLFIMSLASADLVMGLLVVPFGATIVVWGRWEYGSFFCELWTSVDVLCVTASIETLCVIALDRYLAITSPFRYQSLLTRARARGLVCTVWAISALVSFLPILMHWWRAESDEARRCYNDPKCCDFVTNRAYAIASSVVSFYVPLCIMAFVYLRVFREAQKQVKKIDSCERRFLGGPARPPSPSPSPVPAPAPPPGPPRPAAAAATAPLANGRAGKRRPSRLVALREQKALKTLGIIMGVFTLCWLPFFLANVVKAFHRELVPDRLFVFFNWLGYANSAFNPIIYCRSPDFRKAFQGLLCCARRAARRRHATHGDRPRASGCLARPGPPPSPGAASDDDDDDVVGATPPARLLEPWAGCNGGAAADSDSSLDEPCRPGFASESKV
Beta-2 adrenergic receptor (Canis lupus familiaris), sequence (P54833 whole entry, looked up): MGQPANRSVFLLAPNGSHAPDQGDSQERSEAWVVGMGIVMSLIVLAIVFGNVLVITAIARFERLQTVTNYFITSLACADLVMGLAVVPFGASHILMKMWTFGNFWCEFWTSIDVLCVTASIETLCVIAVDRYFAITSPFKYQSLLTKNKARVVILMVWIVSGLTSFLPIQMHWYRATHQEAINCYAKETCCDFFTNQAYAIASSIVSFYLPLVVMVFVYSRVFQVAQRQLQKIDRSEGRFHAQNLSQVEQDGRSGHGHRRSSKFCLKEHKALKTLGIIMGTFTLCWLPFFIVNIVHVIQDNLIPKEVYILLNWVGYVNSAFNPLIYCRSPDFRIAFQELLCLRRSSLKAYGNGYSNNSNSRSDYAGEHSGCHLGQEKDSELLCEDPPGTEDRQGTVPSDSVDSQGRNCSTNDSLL

pA2 [2] | DR10 [3] | Ratio [5] | DR10 [6] | pA2 [7] | DR10 [8] | Ratio [10] | pA2 [11] | Structure (SMILES) | BP decrease [1] | BP decrease [4] | Kb [9] | BP decrease [12] | BP decrease [13]
6.08 | 1.17 mg/kg | 55 | 0.84 mg/kg | 7.82 | 3.86 mg/kg | – | – | CC(CCc1ccc2c(c1)OCO2)NCC(O)c1ccc(O)c(C(N)=O)c1.Cl (centres undefined) [MEDROXALOL HYDROCHLORIDE] | 90 mmHg | 88 mmHg | 2.34 µM | – | –
– | – | – | – | 4.53 | – | – | < 5 | CCCCCCCCCCCCNC(=O)c1cc(C(O)CNC(C)CCc2ccc3c(c2)OCO3)ccc1O.Cl (centres undefined) | – | – | < 63.1 µM | 18 mmHg | 16 mmHg
– | 16.8 mg/kg | 3.2 | 11.8 mg/kg | 6.36 | 3.22 mg/kg | – | 5.86 | CCNC(=O)c1cc(C(O)CNC(C)CCc2ccc3c(c2)OCO3)ccc1O.Cl (centres undefined) | 108 mmHg | 95 mmHg | 1.74 µM | – | –

Second part, the compound before the results:

Structure (SMILES) | pA2 [2] | DR10 [3] | Ratio [5] | DR10 [6] | pA2 [7] | DR10 [8] | Ratio [10] | pA2 [11] | BP decrease [1] | BP decrease [4] | Kb [9] | BP decrease [12] | BP decrease [13]
CC(C)NC(=O)c1cc(C(O)CNC(C)CCc2ccc3c(c2)OCO3)ccc1O.Cl (centres undefined) | – | 14.8 mg/kg | – | 22.5 mg/kg | 5.88 | 4.84 mg/kg | 1.1 | 5.85 | 10 mmHg | 48 mmHg | 0.417 µM | – | –
CC(CCc1ccc2c(c1)OCO2)NCC(O)c1ccc(O)c(C(=O)NCC(C)(C)C)c1.Cl (centres undefined) | – | > 10 mg/kg | 0.8 | > 10 mg/kg | 5.88 | 6.6 mg/kg | – | 6.05 | 24 mmHg | 55 mmHg | 0.126 µM | – | –
Cc1ccccc1N1CCN(CC(O)c2ccc(O)c(C(N)=O)c2)CC1.Cl.Cl (centres undefined) | – | > 10 mg/kg | 0.1 | 15.3 mg/kg | 6.7 | 1.09 mg/kg | – | 7.57 | 37 mmHg | 48 mmHg | 1.86 µM | – | –
CNC(=O)c1cc(C(O)CNC(C)CCc2ccc3c(c2)OCO3)ccc1O.Cl (centres undefined) | – | 3.61 mg/kg | 6.2 | 8.63 mg/kg | 6.69 | 5.44 mg/kg | – | 5.9 | 91 mmHg | 84 mmHg | 0.38 µM | – | –
CC(Cc1ccc2c(c1)OCO2)NCC(O)c1ccc(O)c(C(N)=O)c1 (centres undefined) | – | 7.13 mg/kg | 0.9 | 6.75 mg/kg | 5.97 | 16 mg/kg | – | 6.04 | 73 mmHg | 79 mmHg | 4.57 µM | – | –
COc1ccc(C(O)CNC(C)CCc2ccc3c(c2)OCO3)cc1C(N)=O.Cl (centres undefined) | – | 1.64 mg/kg | > 2090 | 0.23 mg/kg | 8.46 | 9.68 mg/kg | – | < 5.14 | 78 mmHg | 76 mmHg | 43.7 µM | – | –
Cc1ccc(N(CC2=NCCN2)c2cccc(O)c2)cc1.Cl [PHENTOLAMINE HYDROCHLORIDE] | – | – | – | – | – | – | – | – | – | – | – | 60 mmHg | 62 mmHg
